Measurements from US20240246940A1, “HETEROARYL DERIVATIVE COMPOUND AND USE THEREOF” (VORONOI INC., priority 2021, published 2024).

Columns and labels:
Assay type in all cases: cell-based
[1] = tested on: BT-474 cells (HER2 overexpressing cell line); experiment: BT-474 cell proliferation inhibitory activity (CellTiter-Glo, 120 hours); conditions: Homo sapiens
Method in brief: (§1)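 GI50 values derive from luminescence-based live-cell counts, expressed relative to control growth. Final compound ranges were 0.2 nM–10 μM for the two breast lines, […]–5 μM in N-87 and 0.8 nM–45 μM in HaCaT. Tests were run three times.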

[2] = tested on: N-87 cells (HER2 overexpressing cell line); experiment: N-87 cell proliferation inhibitory activity (CellTiter-Glo, 72 hours)
Protocol: To evaluate the cell proliferation inhibitory activity of the compound according to the present invention on HER2 and EGFR kinases, the following method was performed using HER2 overexpressing cell lines (SK-BR-3, BT-474, and N-87) and EGFR expressing cell line (HaCaT).
McCOY'S 5A supplemented with 10% FBS was used for SK-BR-3 cells, RPMI-1640 medium supplemented with 20% FBS was used for BT-474 cancer cells, and RPMI-1640 medium supplemented with 10% FBS was used for N-87 cancer cells. DMEM supplemented with 10% FBS was used for HaCaT cells.
For SK-BR-3 cells, 5000 cells were aliquoted into each well of a white clear bottom 96 well plate (Corning) 48 hours before treatment with the compounds of Examples. For BT-474 cells, 5000 cells were aliquoted into each well of a white clear bottom 96 well plate (Corning) 48 hours before treatment with the compounds of Examples. For N-87 cells, 5000 cells were aliquoted into each well of a white clear bottom 96 well plate (Corning) 24 hours before treatment with the compounds of Examples. For HaCaT cells, 3000 cells were aliquoted into each well of a white clear bottom 96 well plate (Corning) 24 hours before treatment with the compounds of Examples. For SK-BR-3 cells and BT-474 cells, the compounds of Examples were diluted in dimethyl sulfoxide (three-fold dilution, a total of 11 concentrations) and injected each in an amount of 1 μl to a final concentration of 0.2 nM to 10 μM. For N-87 cells, the compounds of Examples were diluted in dimethyl sulfoxide (five-fold dilution, a total of 11 concentrations) and injected each in an amount of 0.5 μl to a final concentration of […] to 5 μM. For HaCaT cells, the compounds of Examples were diluted in dimethyl sulfoxide (three-fold dilution, a total of 11 concentrations) and injected each in an amount of 0.5 μl to a final concentration of 0.8 nM to 45 μM. For the measurement of living cells, the cells were stored at room temperature for 10 minutes using CellTiter-Glo cell viability reagent (Promega) after a certain period of time (SK-BR-3: 120 hours, BT-474: 120 hours, N-87: 72 hours, and HaCaT: 72 hours) post treatment with the compounds of Examples, and the luminescence intensity thereof was measured using a reader (SynergyNeo, Biotek). Each test was repeated three times.
The result values were calculated as a cell growth rate (%) compared to those of the control group. A graph was created using the GraphPad Prism version 5.0 program, and GI50 values were calculated.

[3] = tested on: HaCaT cells (EGFR expressing cell line); experiment: HaCaT cell proliferation inhibitory activity (CellTiter-Glo, 72 hours); conditions: Homo sapiens
Method in brief: as §1

[4] = tested on: SK-BR-3 cells (HER2 overexpressing cell line); experiment: SK-BR-3 cell proliferation inhibitory activity (CellTiter-Glo, 120 hours); conditions: Homo sapiens
Method in brief: as §1

**Q.** How did the GI50 [1] turn out when `C=CC(=O)N1CC(Oc2cc3c(Nc4cc(-c5ccc(F)c(NC(=O)C6CC6)c5F)ccc4OC)ncnc3cc2OC)C1` [Example 3, N-(3′-((6-((1-acryloylazetidin-3-yl)oxy)-7-methoxy-quinazolin-4-yl)amino)-2,4-difluoro-4′-methoxy-[1,1′-biphenyl]-3-yl)cyclopropan-carboxamide] was run?
**A.** ≤ 150 nM

**Q.** What about the GI50 [2] of the same molecule?
**A.** ≤ 150 nM

**Q.** What about the GI50 [3] of the same molecule?
**A.** 150 to 1000 nM

**Q.** What does the source list for `C=CC(=O)N1CCC(Oc2cc3c(Nc4cc(-c5cccc(NC(C)=O)c5)ccc4OC)ncnc3cc2OC)CC1` [Example 224, N-(3′-((6-((1-acryloyl-piperidin-4-yl)oxy)-7-methoxy-quinazolin-4-yl)amino)-4′-methoxy-[1,1′-biphenyl]-3-yl)acetamide]?
**A.** GI50 [1]: ≤ 150 nM; GI50 [2]: ≤ 150 nM; GI50 [3]: ≤ 150 nM

**Q.** How did the GI50 [1] turn out when `C=CC(=O)N1CCC(Oc2cc3c(Nc4cc(-c5scc6c5OCCO6)ccc4OC)ncnc3cc2OC)CC1` [Example 176, 1-(4-((4-((5-(2,3-dihydrothieno [3,4-b][1,4]dioxin-5-yl)-2-methoxyphenyl)amino)-7-methoxy-quinazolin-6-yl)oxy)piperidin-1-yl)prop-2-en-1-one] was run?
**A.** ≤ 150 nM

**Q.** What about the GI50 [2] of the same molecule?
**A.** ≤ 150 nM

**Q.** What about the GI50 [3] of the same molecule?
**A.** ≤ 150 nM

**Q.** Which GI50 [1] does the source give for `C=CC(=O)N1CCC(Oc2cc3c(Nc4cc(-c5ccc(F)c(N(C)C)c5)ccc4OC)ncnc3cc2OC)CC1` [Example 229, 1-(4-((4-((3′-(dimethylamino)-4′-fluoro-4-methoxy-[1,1′-biphenyl]-3-yl)amino)-7-methoxy-quinazolin-6-yl)oxy)piperidin-1-yl)prop-2-en-1-one] here?
**A.** ≤ 150 nM

**Q.** And the GI50 [2]?
**A.** ≤ 150 nM

**Q.** And the GI50 [3]?
**A.** 150 to 1000 nM

**Q.** `C=CC(=O)N1CCC(Oc2cc3c(Nc4cc(-c5ccco5)ccc4OC)ncnc3cc2OC)[C@H](C)C1` (stereo in doubt) [Example 169, 1-((3R,4S)-4-((4-((5-(furan-2-yl)-2-methoxyphenyl)amino)-7-methoxy-quinazolin-6-yl)oxy)-3-methylpiperidin-1-yl)prop-2-en-1-one] was tested. Which GI50 [1] did it give?
**A.** ≤ 150 nM

**Q.** What about the GI50 [2] of the same molecule?
**A.** ≤ 150 nM

**Q.** What about the GI50 [3] of the same molecule?
**A.** ≤ 150 nM

**Q.** Which results are given for `C=CC(=O)N1CC[C@H](Oc2cc3c(Nc4cc(-c5ccco5)ccc4OC)ncnc3cc2OC)[C@H](F)C1` [Example 154, 1-((3R,4S)-3-fluoro-4-((4-((5-(furan-2-yl)-2-methoxy-phenyl)amino)-7-methoxy-quinazolin-6-yl)oxy)piperidin-1-yl)prop-2-en-1-one]?
**A.** GI50 [1]: ≤ 150 nM; GI50 [2]: ≤ 150 nM; GI50 [3]: ≤ 150 nM

**Q.** `C=CC(=O)N1CCC(Oc2cc3c(Nc4cc(-c5ccc(F)c(NC(=O)C6CC6)c5F)ccc4OC)ncnc3cc2OC)CC1` [Example 2, N-(3'-((6-((1-acryloylpiperidin-4-yl)oxy)-7-methoxy-quinazolin-4-yl)amino)-2,4-difluoro-4′-methoxy-[1,11 biphenyl]-3-yl)cyclopropan-carboxamide] was tested. Which GI50 [1] did it give?
**A.** ≤ 150 nM

**Q.** And the GI50 [2]?
**A.** ≤ 150 nM

**Q.** What about the GI50 [3] of the same molecule?
**A.** > 1000 nM

**Q.** For `C=CC(=O)N1CCC(Nc2cc3c(Nc4cc(-c5ccc(F)cc5F)ccc4OC)ncnc3cc2OCC)CC1` [Example 301, 1-(4-((4-((2′,4′-difluoro-4-methoxy-[1,1′-biphenyl]-3-yl)amino)-7-ethoxyquinazolin-6-yl)amino)piperidin-1-yl)prop-2-en-1-one], which GI50 [1] is on record?
**A.** ≤ 150 nM

**Q.** What about the GI50 [2] of the same molecule?
**A.** ≤ 150 nM

**Q.** What about the GI50 [3] of the same molecule?
**A.** ≤ 150 nM

**Q.** Which GI50 [1] does the source give for `C=CC(=O)N1CCC(Oc2cc3c(Nc4cc(-c5ccc(F)c(NC(C)=O)c5F)ccc4OC)ncnc3cc2OC)CC1` [Example 1, N-(3′-((6-((1-acryloylpiperidin-4-yl)oxy)-7-methoxyquinazolin-4-yl)amino)-2,4-difluoro-4′-methoxy-[1,1′-biphenyl]-3-yl)acetamide] here?
**A.** ≤ 150 nM

**Q.** And the GI50 [2]?
**A.** ≤ 150 nM

**Q.** And the GI50 [3]?
**A.** > 1000 nM

**Q.** What does the source list for `C=CC(=O)N1CCC(Oc2cc3c(Nc4cc(-c5ccc(F)c(N)c5F)ccc4OC)ncnc3cc2OC)CC1` [Example 158, 1-(4-((4-((3′-amino-2′,4′-difluoro-4-methoxy-[1,1′-biphenyl]-3-yl)amino)-7-methoxy-quinazolin-6-yl)oxy)piperidin-1-yl)prop-2-en-1-one]?
**A.** GI50 [1]: ≤ 150 nM; GI50 [2]: ≤ 150 nM; GI50 [3]: ≤ 150 nM

**Q.** How did the GI50 [4] turn out when `C=CC(=O)N1CCC(Oc2cc3c(Nc4cc(-c5ccc(F)cc5F)ccc4OC)ncnc3cc2O[C@@H]2CCOC2)CC1` [Example 281, (R)-1-(4-((4-((2′,4′-difluoro-4-methoxy-[1,1′-biphenyl]-3-yl)amino)-7-((tetrahydrofuran-3-yl)oxy)quinazolin-6-yl)oxy)piperidin-1-yl)prop-2-en-1-one] was run?
**A.** ≤ 150 nM

**Q.** What about the GI50 [2] of the same molecule?
**A.** ≤ 150 nM

**Q.** What about the GI50 [3] of the same molecule?
**A.** ≤ 150 nM

**Q.** What does the source list for `C=CC(=O)N1CCC(Oc2cc3c(Nc4cc(-c5cccc(C=C)c5)ccc4OC)ncnc3cc2OC)CC1` [Example 215, 1-(4-((7-methoxy-4-((4-methoxy-3′-vinyl-[1,1′-biphenyl]-3-yl)amino)quinazolin-6-yl)oxy)piperidin-1-yl)prop-2-en-1-one]?
**A.** GI50 [1]: ≤ 150 nM; GI50 [2]: ≤ 150 nM; GI50 [3]: 150 to 1000 nM

**Q.** For `C=CC(=O)N1CC[C@@H](Oc2cc3c(Nc4cc(-c5ccc(F)cc5F)ccc4OC)ncnc3cc2OC)[C@@H](F)C1` [Example 189, 1-((3S,4R)-4-((4-((2′,4′-difluoro-4-methoxy-[1,1′-biphenyl]-3-yl)amino)-7-methoxy-quinazolin-6-yl)oxy)-3-fluoropiperidin-1-yl)prop-2-en-1-one], which GI50 [1] is on record?
**A.** ≤ 150 nM

**Q.** And the GI50 [2]?
**A.** ≤ 150 nM

**Q.** What about the GI50 [3] of the same molecule?
**A.** ≤ 150 nM

**Q.** What does the source list for `C=CC(=O)N1CCC(Oc2cc3c(Nc4cc(-c5ccc(F)c(N)c5)ccc4OC)ncnc3cc2OC)CC1` [Example 146, 1-(4-((4-((3′-amino-4′-fluoro-4-methoxy-[1,1′-biphenyl]-3-yl)amino)-7-methoxy-quinazolin-6-yl)oxy)piperidin-1-yl)prop-2-en-1-one]?
**A.** GI50 [4]: ≤ 150 nM; GI50 [2]: ≤ 150 nM; GI50 [3]: > 1000 nM

**Q.** What does the source list for `C=CC(=O)N1CCC(Oc2cc3c(Nc4cc(-c5cccc(N6CCC6)c5)ccc4OC)ncnc3cc2OC)CC1` [Example 225, 1-(4-((4-((3′-(azetidin-1-yl)-4-methoxy-[1,1′-biphenyl]-3-yl)amino)-7-methoxy-quinazolin-6-yl)oxy)piperidin-1-yl)prop-2-en-1-one]?
**A.** GI50 [1]: 150 to 1000 nM; GI50 [2]: ≤ 150 nM; GI50 [3]: > 1000 nM

**Q.** Which GI50 [1] does the source give for `C=CC(=O)N1CCC(Oc2cc3c(Nc4cc(-c5ccc(F)c(O)c5)ccc4OC)ncnc3cc2OC)CC1` [Example 168, 1-(4-((4-((4′-fluoro-3′-hydroxy-4-methoxy-[1,1′-biphenyl]-3-yl)amino)-7-methoxy-quinazolin-6-yl)oxy)piperidin-1-yl)prop-2-en-1-one] here?
**A.** ≤ 150 nM

**Q.** And the GI50 [2]?
**A.** ≤ 150 nM

**Q.** What about the GI50 [3] of the same molecule?
**A.** 150 to 1000 nM

**Q.** How did the GI50 [1] turn out when `C=CC(=O)N1CCC(Oc2cc3c(Nc4cc(-c5ccc(F)cc5Cl)ccc4OC)ncnc3cc2OC)CC1` [Example 191, 1-(4-((4-((2′-chloro-4′-fluoro-4-methoxy-[1,1′-biphenyl]-3-yl)amino)-7-methoxy-quinazolin-6-yl)oxy)piperidin-1-yl)prop-2-en-1-one] was run?
**A.** ≤ 150 nM

**Q.** And the GI50 [2]?
**A.** ≤ 150 nM

**Q.** And the GI50 [3]?
**A.** ≤ 150 nM

**Q.** Which GI50 [1] does the source give for `C=CC(=O)N1CCC(Oc2cc3c(Nc4cc(-c5ccc(F)c(C)c5F)ccc4OC)ncnc3cc2OC)CC1` [Example 207, 1-(4-((4-((2′,4′-difluoro-4-methoxy-3′-methyl-[1,1′-biphenyl]-3-yl)amino)-7-methoxy-quinazolin-6-yl)oxy)piperidin-1-yl)prop-2-en-1-one] here?
**A.** ≤ 150 nM

**Q.** What about the GI50 [3] of the same molecule?
**A.** 150 to 1000 nM

**Q.** What does the source list for `C=CC(=O)N1CCC(Oc2cc3c(Nc4cc(-c5ccc6c(c5)OCO6)ccc4OC)ncnc3cc2OC)CC1` [Example 153, 1-(4-((4-((5-(benzo[d][1,3]dioxol-5-yl)-2-methoxyphenyl)amino)-7-methoxy-quinazolin-6-yl)oxy)piperidin-1-yl)prop-2-en-1-one]?
**A.** GI50 [1]: 150 to 1000 nM; GI50 [3]: > 1000 nM

**Q.** `C=CC(=O)N1CCC(Oc2cc3c(Nc4cc(-c5cccc(SC)c5)ccc4OC)ncnc3cc2OC)CC1` [Example 205, 1-(4-((7-methoxy-4-((4-methoxy-3′-(methylthio)-[1,1′-biphenyl]-3-yl)amino)quinazolin-6-yl)oxy)piperidin-1-yl)prop-2-en-1-one] was tested. Which GI50 [1] did it give?
**A.** 150 to 1000 nM

**Q.** What about the GI50 [3] of the same molecule?
**A.** > 1000 nM
